Measured values from US20100062517A1, “In situ production of microbial pigments for metal and actinide immobilization” (priority 2008, published 2010).

Legend:
4-HPPD = experiment: Pigment production in pure cultures of soil isolates with sulcotrione; assay type: cell-based, soil isolates (bacteria); settings: sulcotrione 18 μM, LBSM with tyrosine 1 g/l, absorbance 400 nm, relative to no inhibitor
Source text: Initial characterization of pigment included intensity of coloration and diffusion through agar media. Dark black non-diffusive pigments are indicative of DOPA melanin whereas reddish brown diffusive pigments are more likely pyomelanin. The chemical sulcotrione (Zeneca Agrochemicals) was used as a specific competitive inhibitor of 4-HPPD, the enzyme required for pyomelanin production. Methods incorporated sulcotrione to determine if pigment production was a result of 4-HPPD. Pure cultures of soil isolates were grown in LBSM and tyrosine (1 g/l) was supplemented to promote pigment production. Sulcotrione (18 μM) was added prior to pigmentation in order to differentiate pyomelanin production from other pigments that may be produced. Pigment production was quantified spectrophotometrically (400 nm) in cell free culture fluid. Controls for comparison were without tyrosine or without sulcotrione.

Tims Branch soil = experiment: Field soil columns treated with tyrosine; set-up: species or system indigenous soil bacteria
Experimental: Additionally, the following soil properties were analyzed: percent organic matter by loss-on-ignition at a temperature of 375° C. and pH was determined from a 1:1 mineral/water equilibration solution. Also, total concentration of U in a homogenized soil sample was determined by a total microwave digestion of 0.6 g of homogenized soil material with concentrated acids (10 ml of HNO3, 4 ml of H2SO4, and 2 ml of HCl). The resulting extract solution was analyzed by ICP-MS. Changes in the organic content of soils due to pyomelanin production were also determined by spectrophotometric absorbance (400 nm) of particle free supernatants and Fourier transform infrared (FTIR) spectroscopy. Soil samples were removed (5-10 g/column) 28 days after treatment addition for pore water analysis. Optical density was determined for centrifuged soil to determine the degree of pigmentation resulting from tyrosine amendments. Dried pigments from soil effluents (60° C.) were then further characterized using FTIR spectroscopy and compared to that of pure tyrosine and dihydroxyphenylalanine (DOPA) melanin (Aldrich Chemicals). […] All samples were analyzed using a ThermoElectron Smart Orbit diamond single bounce attenuated total reflectance accessory. […] During field incubation rainfall was measured at 12.1 cm. […] Samples were processed the next day and analyzed for metals and pH.

Question: With `CS(=O)(=O)c1ccc(C(=O)C2C(=O)CCCC2=O)c(Cl)c1` [sulcotrione] as the compound, how does the “Pigment production in bacterial cultures” value (4-HPPD) read?
Answer: The value was “halted”.

Question: For `N[C@@H](Cc1ccc(O)cc1)C(=O)O` [tyrosine], which “U in pore water compared to controls” value (Tims Branch soil; 30 days after treatment, 10, 30 and 50 cm depths) is on record?
Answer: The value was “significantly decreased”.

Question: What about the “Duration of U immobilization” value (Tims Branch soil; one-time addition of tyrosine to soil) of the same compound?
Answer: Its value is “at least 13 months”.
